{
  "source": "paper PMC3875372",
  "about": "(Biochemistry, 2013)",
  "key": {"[1]": {"tested_on": "modified DHFRs (biphenyl-phenylalanines at position 115)", "assay": "Inhibition of the modified DHFRs", "assay_type": "biochemical, E. coli", "settings": "all four DHFRs modified at position 115"}, "[2]": {"settings": "standards; 2-aminopyridine λex 295 nm, anthracene λex 340 nm; cited from earlier work"}, "[3]": {"tested_on": "ecDHFR", "settings": "cited from earlier work"}},
  "data": [
    {"compound": "CN(Cc1cnc2nc(N)nc(N)c2n1)c1ccc(C(=O)N[C@@H](CCC(=O)O)C(=O)O)cc1", "note": "[methotrexate]", "values": [
      {"measurement": "inhibition of the modified enzymes compared with wild type", "setting": "[1]", "value": "about the same extent as wild type"}
    ]},
    {"compound": "c1ccc2cc3ccccc3cc2c1", "note": "[anthracene]", "values": [
      {"measurement": "ΦF of quantum yield standard", "setting": "[2]", "value": 0.27}
    ]},
    {"compound": "Nc1ccccn1", "note": "[2-aminopyridine]", "values": [
      {"measurement": "ΦF of quantum yield standard", "setting": "[2]", "value": 0.60}
    ]},
    {"compound": "4-biphenyl-L-phenylalanine", "values": [
      {"measurement": "effect on the rate at which ecDHFR consumed NADPH", "setting": "[3]; replacement of Ile115, in the presence of dihydrofolate", "value": "no significant effect"}
    ]},
    {"compound": "L-(7-hydroxycoumarin-4-yl)ethylglycine", "values": [
      {"measurement": "rate of NADPH consumption relative to wild type", "setting": "[3]; position 115 of ecDHFR", "value": "about 25%"}
    ]}
  ]
}
